Laboratory results as given in patent US20210198277A1, “AMINE-SUBSTITUTED ARYL OR HETEROARYL COMPOUNDS” (Epizyme, Inc., priority 2016, published 2021).

Key:
human EHMT2 913-1193 = target: T1, human EHMT2 913-1193 (Homo sapiens, UniProt Q96KQ7); assay: EHMT2 enzyme assay on histone peptide substrate (EHMT2 PEP); format: biochemical; conditions: Table II; read-out: EHMT2 PEP (IC50 μM)
T1 construct: recombinant purified human EHMT2 913-1193, Viva; purchased Viva
T1 sequence (Q96KQ7 913-1193): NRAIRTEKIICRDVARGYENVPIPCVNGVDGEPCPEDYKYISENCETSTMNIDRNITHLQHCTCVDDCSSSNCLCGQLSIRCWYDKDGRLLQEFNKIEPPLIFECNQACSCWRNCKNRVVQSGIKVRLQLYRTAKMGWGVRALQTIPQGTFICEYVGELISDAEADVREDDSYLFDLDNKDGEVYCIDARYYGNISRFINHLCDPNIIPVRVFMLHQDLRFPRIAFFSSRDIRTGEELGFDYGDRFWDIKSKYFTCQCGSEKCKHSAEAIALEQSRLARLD
Method in brief: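 Compounds were tested as 3-fold dilutions, 10 points from a 50 μM final top (2% DMSO), after 30-min preincubation with 0.031 nM enzyme in Bicine buffer pH 7.5. Transfer of ^3H-methyl from ^3H-SAM to biotinylated histone peptide ran 60 min at room temperature and was detected by streptavidin Flashplate scintillation.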

EHMT1 = target: T2, EHMT1 (Homo sapiens, UniProt Q9H9B1); assay: EHMT1 enzyme assay on peptide substrate (EHMT1 PEP); format: biochemical; conditions: Table II; read-out: EHMT1 PEP (IC50 μM)
T2 sequence (Q9H9B1 1-1298): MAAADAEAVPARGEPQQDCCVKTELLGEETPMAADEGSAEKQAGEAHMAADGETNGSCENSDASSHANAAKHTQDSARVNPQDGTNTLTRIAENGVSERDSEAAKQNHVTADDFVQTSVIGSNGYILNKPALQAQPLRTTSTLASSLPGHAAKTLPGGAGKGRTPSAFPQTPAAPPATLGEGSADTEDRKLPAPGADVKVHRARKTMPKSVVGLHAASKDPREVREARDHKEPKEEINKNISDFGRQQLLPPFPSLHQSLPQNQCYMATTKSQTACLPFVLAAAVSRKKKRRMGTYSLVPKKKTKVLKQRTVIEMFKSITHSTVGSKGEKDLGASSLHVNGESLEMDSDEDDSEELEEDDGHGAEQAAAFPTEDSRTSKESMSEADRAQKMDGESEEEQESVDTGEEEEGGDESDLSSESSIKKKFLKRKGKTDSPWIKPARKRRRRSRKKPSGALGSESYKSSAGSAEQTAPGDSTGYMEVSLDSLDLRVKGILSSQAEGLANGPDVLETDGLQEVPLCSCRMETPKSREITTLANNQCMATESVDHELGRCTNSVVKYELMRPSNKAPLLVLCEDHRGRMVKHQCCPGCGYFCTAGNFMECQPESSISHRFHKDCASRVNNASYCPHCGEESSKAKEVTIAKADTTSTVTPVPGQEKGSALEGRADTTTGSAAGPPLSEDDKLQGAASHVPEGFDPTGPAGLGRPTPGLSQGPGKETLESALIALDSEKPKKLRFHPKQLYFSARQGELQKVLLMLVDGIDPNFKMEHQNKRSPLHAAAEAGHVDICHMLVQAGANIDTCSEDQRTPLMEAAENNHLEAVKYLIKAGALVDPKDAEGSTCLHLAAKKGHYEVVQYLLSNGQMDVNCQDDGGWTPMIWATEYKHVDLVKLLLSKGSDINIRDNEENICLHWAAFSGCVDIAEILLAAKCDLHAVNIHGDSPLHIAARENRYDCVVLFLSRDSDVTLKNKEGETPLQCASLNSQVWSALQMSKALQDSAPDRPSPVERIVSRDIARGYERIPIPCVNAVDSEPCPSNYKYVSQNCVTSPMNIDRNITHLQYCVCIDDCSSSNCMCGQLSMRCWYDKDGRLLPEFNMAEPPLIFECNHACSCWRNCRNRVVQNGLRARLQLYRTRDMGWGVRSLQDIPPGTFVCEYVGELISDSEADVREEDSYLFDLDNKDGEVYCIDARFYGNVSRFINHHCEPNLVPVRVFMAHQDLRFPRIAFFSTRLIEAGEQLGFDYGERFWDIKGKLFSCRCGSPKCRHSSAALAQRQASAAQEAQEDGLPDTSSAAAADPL

Structure (SMILES)	IC50 (human EHMT2 913-1193) [µM]	IC50 (EHMT1) [µM]
COc1ccc(Nc2ccnc(OCC3CCN(C(C)=O)CC3)c2)cc1OCCCN1CCCC1 [Compound 157]	1 to 10	1 to 10
COc1ccc(N(C)c2nccc(NCC3CCN(C(C)=O)CC3)n2)cc1OCCCN1CCCC1 [Compound 158]	> 10	> 10
COc1ccc(Nc2nccc(NCC3CCN(C)CC3)n2)cc1OCCCNc1ccccc1 [Compound 159]	> 10	> 10
COc1ccc(Nc2nccc(NCC3CCN(C(C)=O)CC3)n2)cc1OCCCNc1ccccc1 [Compound 160]	> 10	> 10
COc1ccc(Nc2nccc(N3CCC(NC(C)=O)CC3)n2)cc1OCCCN1CCCC1 [Compound 161]	> 10	> 10
COc1ccc(Nc2nccc(N3CCN(S(C)(=O)=O)CC3)n2)cc1OCCCN1CCCC1 [Compound 162]	> 10	> 10
COc1ccc(Nc2cc(N(C)CC3CCN(C(C)=O)CC3)ccn2)cc1OCCCN1CCCC1 [Compound 163]	> 10	> 10
COc1ccc(Nc2nccc(NCc3ccc4[nH]ncc4c3)n2)cc1OCCCN1CCCC1 [Compound 164]	> 10	> 10
COc1ccc(Nc2nccc(NCc3ccc(=O)[nH]c3)n2)cc1OCCCN1CCCC1 [Compound 165]	0.1 to 1	0.1 to 1
COc1ccc(Nc2nccc(NCC3CCN(C(C)=O)CC3)n2)cc1OCCC(=O)N1CCCC1 [Compound 166]	> 10	> 10
COc1ccc(Nc2nccc(NCCc3ccccn3)n2)cc1OCCCN1CCCC1 [Compound 167]	0.1 to 1	0.1 to 1
COc1ccc(Nc2nccc(N3CCN(c4ccccn4)CC3)n2)cc1OCCCN1CCCC1 [Compound 168]	> 10	> 10
COc1ccc(Nc2nccc(N3CCS(=O)(=O)CC3)n2)cc1OCCCN1CCCC1 [Compound 169]	> 10	> 10
COc1ccc(Nc2nccc(N3CC(C(=O)N(C)C)C3)n2)cc1OCCCN1CCCC1 [Compound 170]	> 10	> 10
COc1ccc(Nc2nccc(N(C)C)n2)cc1OCCCN1CCCC1 [Compound 171]	1 to 10	1 to 10
COc1ccc(Nc2nccc(N(C)CC3CCN(C(C)=O)CC3)n2)cc1OCCCN1CCCC1 [Compound 172]	1 to 10	1 to 10
COc1ccc(Nc2cc(OCC3CCN(C(C)=O)CC3)ccn2)cc1OCCCN1CCCC1 [Compound 173]	1 to 10	1 to 10
COc1ccc(Nc2nccc(C)n2)cc1OCCCN1CCCC1 [Compound 174]	> 10	> 10
COc1ccc(Nc2nc(C)cc(C)n2)cc1OCCCN1CCCC1 [Compound 175]	> 10	> 10
CNc1cccc(Nc2ccc(OC)c(OCCCN3CCCC3)c2)n1 [Compound 176]	> 10	> 10

Structure (SMILES)	IC50 (human EHMT2 913-1193) [µM]	IC50 (EHMT1) [µM]
COCCN(C)c1ccnc(Nc2ccc(OC)c(OCCCN3CCCC3)c2)n1 [Compound 177]	1 to 10	> 10
COc1ccc(Nc2nccc(NCCC3CCOCC3)n2)cc1OCCCN1CCCC1 [Compound 178]	0.1 to 1	0.1 to 1
COc1ccc(Nc2nccc(N3CC(C(N)=O)C3)n2)cc1OCCCN1CCCC1 [Compound 179]	> 10	> 10
COc1ccc(Nc2nccc(-n3cc(C)cn3)n2)cc1OCCCN1CCCC1 [Compound 180]	> 10	> 10
COc1ccc(Nc2ncc(CO)cn2)cc1OCCCN1CCCC1 [Compound 181]	> 10	> 10
COc1cnc(Nc2cc(NCC3CCN(C(C)=O)CC3)ccn2)cc1OCCCN1CCCC1 [Compound 182]	0.1 to 1	0.1 to 1
COc1ccc(Nc2nccc(NCC3CCN(C(C)=O)CC3)n2)cc1OCC(C)CN1CCCC1 (stereo not drawn) [Compound 183]	1 to 10	1 to 10
COc1ccc(Nc2cncc(NCC3CCN(C(C)=O)CC3)c2)cc1OCCCN1CCCC1 [Compound 184]	> 10	> 10
COc1ccc(Nc2cc(NCC3CCN(C(C)=O)CC3)cnn2)cc1OCCCN1CCCC1 [Compound 185]	1 to 10	1 to 10
CNc1cc(C)nc(Nc2ccc(OC)c(OCCCN3CC[C@@H](F)C3)c2)n1 [Compound 186]	0.1 to 1	0.1 to 1
CNc1nc(Nc2ccc(OC)c(OCCCN3CCCC3)c2)ncc1F [Compound 187]	1 to 10	1 to 10
CNc1cc(Nc2ccc(OC)c(OCCCN3CCCC3)c2)cnn1 [Compound 188]	0.1 to 1	0.1 to 1
COc1ccc(Nc2nccc(NCc3ccc4nccn4c3)n2)cc1OCCCN1CCCC1 [Compound 191]	< 0.1	< 0.1
COc1ccc(Nc2nccc(NC3CN(C(C)=O)C3)n2)cc1OCCCN1CCCC1 [Compound 192]	0.1 to 1	0.1 to 1
COc1ccc(Nc2nccc(NCCn3cccn3)n2)cc1OCCCN1CCCC1 [Compound 193]	0.1 to 1	0.1 to 1
COc1ccc(Nc2nccc(NCC3CCN(C(C)=O)CC3)n2)cc1OC(C)CCN1CCCC1 (stereo not drawn) [Compound 195]	1 to 10	1 to 10
COc1ccc(Nc2nccc(NCC3CCN(S(C)(=O)=O)CC3)n2)cc1OCCCN1CCCC1 [Compound 199]	0.1 to 1	0.1 to 1
CCOC(=O)N1CCC(CNc2ccnc(Nc3ccc(OC)c(OCCCN4CCCC4)c3)n2)CC1 [Compound 203]	0.1 to 1	0.1 to 1
COc1ccc(Nc2nccc(NCC3CCOCC3)n2)cc1OCCN1CCOCC1 [Compound 204]	1 to 10	1 to 10
